Laboratory results taken from patent US20240197928A1, “SODIUM-DEPENDENT GLUCOSE TRANSPORTER 2 AS A DIAGNOSTIC AND THERAPEUTIC TARGET FOR PRE-MALIGNANT LESIONS” (THE REGENTS OF THE UNIVERSITY OF CALIFORNIA, priority 2019, published 2024).

What was measured:
[1] = tested on: patient-derived xenografts of human LADC; assay: Therapeutic trial in patient-derived xenografts of human LADC; format: in vivo, NSG mice
Text: Patient-derived xenografts. The tumor samples were obtained from surgically resected specimens after informed consent under the UCLA Lung SPORE (PDX #004 and #011) or the Long Beach Memorial Hospital Institutional Review Board protocol (PDX #013). One of the PDXs (#186) was purchased from the Jackson laboratories. PDXs were established and passaged in NSG mice. NSG mice were procured from the UCLA Radiation Oncology breeding colony. For each mouse, two small pieces of tumor tissue (4 mm^3) were implanted subcutaneously in the flank regions.
Patient-derived xenografts. The mice were randomized in two therapeutic groups (same as for the trials in GEMMs): placebo and canagliflozin (30 mg/kg per day) The number of mice per group was four for PDX #011, eight for PDX #013, three for PDX #004, and five for PDX #186; each mouse was inoculated with two tumors (one tumor on each flank). Some of the tumors of PDX #011 developed soft tissue metastases in the axillary regions, and these were counted as separate tumors. Overall, 38 tumors were included in the placebo and 39 tumors in the canagliflozin group. […] The tumor volumes at 2 weeks were counted as final tumor volumes.
Mice were imaged by Me4FDG and FDG PET/CT before treatment and 2 weeks after starting treatment. […] The mice were sacrificed, and the tumors were analyzed after 1 month of treatment. […]

[2] = tested on: patient-derived xenografts of human LADC; assay: Me4FDG and FDG microPET in PDXs before and 2 weeks after the beginning of treatment; format: in vivo, NSG mice; conditions: canagliflozin 30 mg/kg per day
Method: For the microPET in PDXs, a subset of the mice (PDXs #004, #013, and #186) received both Me4FDG and FDG PET scans the day before and 2 weeks after the beginning of treatment to evaluate the response of glucose transporter activity to the treatment.
The animals were anesthetized with 1.5% (v/v) isoflurane in oxygen, were given a dose of 100 μCi of Me4FDG or FDG via tail vein injection, and were maintained under anesthesia for 1 hour of unconscious uptake. The mice were then immobilized on the imaging bed and received a 10-min static PET scan followed by a CT scan. Each mouse received two different PET scans with the two tracers (Me4FDG and FDG) on consecutive days to allow for tracer decay. The equipments used were Focus 220 microPET scanner (Concorde Microsystems) and Inveon microPET scanner (Siemens) for the microPET scans and CrumpCAT (UCLA Crump Institute) for the microCT.
The PET data were analyzed with AMIDE software version 1.0.4 (amide.sourceforge.net/) (55). […] The percentage of injected dose for each ROI was calculated by dividing the measured activity in the ROI by the total injected dose, as measured from the PET image by designing an ROI encompassing the whole mouse. […] Briefly, we evaluated the background signal for each mouse by designing a ROI corresponding to the normal lung. We then calculated the CNR for each nodule by using the following formula (31)

[3] = molecular target: SGLT2 (Homo sapiens, UniProt P31639); conditions: reference 39; cited from earlier work
[4] = tested on: lung tumors in KPluc mice; assay: Therapeutic trials in the KPluc genetically engineered mouse model of LADC; conditions: vs placebo

SMILES: Cc1ccc([C@@H]2O[C@H](CO)[C@@H](O)[C@H](O)[C@H]2O)cc1Cc1ccc(-c2ccc(F)cc2)s1 [canagliflozin]
- final tumor volumes lower than the control mice ([1]; 30 mg/kg per day oral gavage for 1 month, four PDXs, P=0.003): about 47%
- geometric mean ratio of final tumor volumes, treated vs control ([1]; 95% confidence interval 0.36 to 0.80, P=0.003, adjusted for trial and mouse random effects): 0.53
- FDG signal from day 0 to day 14 [2]: did not significantly change
- Me4FDG uptake from day 0 to day 14 ([2]; P<0.001): significantly reduced
- effectiveness as SGLT2 inhibitor compared with dapagliflozin [3]: more effective SGLT2 inhibitor than dapagliflozin
- Tumor burden estimated by bioluminescence imaging (BLI) ([4]; 30 mg/kg per day oral gavage from 2 weeks after tumor induction, P<0.001): significantly lower
- onset of tumors (BLI signal up to week 8) ([4]; 30 mg/kg per day oral gavage, P<0.001): significantly delayed
- tumor burden by histological analysis of the lungs and measurement of tumor area ([4]; at 8 weeks and in the survival cohort, P<0.05): significantly lower tumor burden
- mouse survival ([4]; treated until death, n=15 per group, P=0.0003): significantly prolonged
- Ki67 proliferation rate in solid LADCs [4]: not in solid LADCs
- Ki67 proliferation rate in premalignant lesions ([4]; P=0.001): significantly lower
